As a reminder, the IC50 is the midpoint of a concentration-inhibition curve.

The record followed here is ChEMBL document CHEMBL1770129, “Total synthesis of solamargine” (Bioorg Med Chem Lett, 2011).

In one assay the test system is HepG2. Kind of assay: Cytotoxicity against human HepG2 cells by MTT assay. In kind it is functional, cell-based. (Tetrazolium assays rely on reduction of a dye to a coloured formazan, in cell work by metabolically active cells.)
A short description of assay [1]: Cytotoxicity against human U87 cells by MTT assay. Conditions: U-87 MG. In kind it is functional, cell-based, U-87MG ATCC.
A further assay deals with K562. Kind of assay: Cytotoxicity against human K562 cells by MTT assay. In kind it is functional, cell-based.
A further assay has as its system H9c2. Briefly: Cytotoxicity against rat H9c2 cells by MTT assay. In kind it is cell-based.
The nature of assay [2]: Cytotoxicity against human HL-7702 by MTT assay. Conditions: L02.
The next assay deals with HeLa. Briefly: Cytotoxicity against human HeLa cells by MTT assay. In kind it is functional, cell-based.
For another assay, the system named is MCF7. Briefly: Cytotoxicity against human MCF7 cells by MTT assay. In kind it is functional, cell-based.
Another assay deals with A549. Briefly: Cytotoxicity against human A549 cells by MTT assay. In kind it is functional, cell-based.
The next assay has as its system HCT-116. Kind of assay: Cytotoxicity against human HCT116 cells by MTT assay. In kind it is functional, cell-based.

On to `C[C@@H]1CC[C@@]2(NC1)O[C@H]1C[C@H]3[C@@H]4CC=C5C[C@@H](O[C@@H]6O[C@H](CO)[C@@H](O[C@@H]7O[C@@H](C)[C@H](O)[C@@H](O)[C@H]7O)[C@H](O)[C@H]6O[C@@H]6O[C@@H](C)[C@H](O)[C@@H](O)[C@H]6O)CC[C@]5(C)[C@H]4CC[C@]3(C)[C@H]1[C@@H]2C` [SOLAMARGINE], for which the half-inhibitory concentration (IC50) with HepG2 is 2.5 µM; in assay [1], 3.2 µM; with K562, 5.2 µM; with H9c2 it was more than 20 µM; in assay [2], 13.5 µM; in the assay with HeLa it was 6 µM. In addition, the IC50 in the assay with MCF7 was 2.1 µM; in the assay with A549, 8 µM; in the assay with HCT-116, 3.8 µM.
